Reference: patent US20240199634A1, “CYCLIC COMPOUNDS AND METHODS OF USING SAME” (SCHRÖDINGER, INC., priority 2021, published 2024)

Assays:
[1] = biological target: T1, Full length human CDC7 protein co-expressed with DBF4 (Homo sapiens, UniProt O00311); test: CDC7 Kinase Biochemical Assay (ADP-Glo, PDKtide substrate); details: 0.1 nM CDC7/DBF4, 1 μM ATP, 10 μM PDKtide, 4 h reaction
T1 construct: Full length human CDC7 protein co-expressed with DBF4; purchased SignalChem (China)
Method: CDC7 Kinase Biochemical Assay PROTOCOL:
Full length human CDC7 protein co-expressed with DBF4 was purchased from SignalChem (China). CDC7 kinase activity was determined with PDKtide (SignalChem) as a substrate and by measuring ADP production using the ADP-Glo™ Kinase Assay kit (Promega) following the manufacturer's instructions. The kinase reaction was performed using the following conditions: Buffer: 40 mM Tris pH 7.5, 20 mM MgCl2, 0.1 mg/mL BSA and 50 μM DTT. Final reaction mix contained 0.1 nM CDC7/DBF4, 1 μM ATP and 10 μM PDKtide. The kinase reaction time was 4 h. The ADP-Glo signal was measured using an EnVision plate reader (PerkinELmer).
Percent inhibition of CDC7 kinase activity was calculated based on the following formula:
[formula] • SSample: the signal of compounds • SHigh Ctrl: the signal of high control (DMSO) • SLow Ctrl: the signal of low control (positive control CDC7 inhibitor)

[2] = system: phosphorylation of MCM2 S53 in colo205 cells; test: Phosphorylated MCM2 MSD Electrochemiluminescence Assay; format: cell-based; details: Homo sapiens, COLO 205, 20 h incubation, read-out: pMCM2-S53 MSD Colo205 IC50
Method: Phosphorylated MCM2 MSD Electrochemiluminescence Assay
The effect of CDC7 inhibitors on cellular phosphorylation of the CDC7 substrate MCM2 was determined using the following protocol:
A total of 40,000 colo205 cells in 100 μL culture medium (1640 medium+10% Fetal bovine serum+1% Penicillin-Streptomycin) were plated in 96-well cell culture plates and allowed to attach for 6 hours. 3-fold serial dilutions of test compounds were prepared in completed PBS at 25× final concentration and 4 μL of each were added to the cells and incubated for 20 hours at 37° C., 5% CO2. Each concentration was tested in duplicate. After the 20 h incubation, cells were washed with 150 μL PBS and lysed with 40 μL MSD lysis buffer (obtained from Meso Scale Diagnostics) supplied with 1× complete ULTRA cocktail inhibitor (obtained from Roche). To detect phosphorylation of MCM2 S53, 30 μL of capture antibody solution (obtained from Abnova, catalog number H00004171-M01, 1:500) was added to each well of MULTI-ARRAY 96-well High Bind Plate, and incubated overnight. The antibody solution was removed, wells blocked with BSA solution and plates washed, followed by addition of 30 μl of cell lysate per well. After 2 h incubation, plates were washed. 30 μL of 1× detection antibody solution (obtained from Abcam, catalog number ab109133, 1:1000) was then added to each well and incubate for 1 hour. Plates were washed and 30 μL of 1× secondary antibody solution (obtained from MSD, catalog number R32AB-1, 1:5000) was added to each well and incubate for 1 hour. Plates were washed and 150 μL of 1× Read Buffer T was added to each well of the MSD plate. The electrochemiluminescence signal was measured on a MESO SECTOR 5600 plate reader. The percentage of remaining phosphorylated MCM2 signal was calculated following the equation below.
[formula] • HC (high control): Cells treated with DMSO • Cpds: Cells treated with test compounds • LC (low control): Cells treated with positive control CDC7 inhibitor

T1 sequence (O00311 whole entry): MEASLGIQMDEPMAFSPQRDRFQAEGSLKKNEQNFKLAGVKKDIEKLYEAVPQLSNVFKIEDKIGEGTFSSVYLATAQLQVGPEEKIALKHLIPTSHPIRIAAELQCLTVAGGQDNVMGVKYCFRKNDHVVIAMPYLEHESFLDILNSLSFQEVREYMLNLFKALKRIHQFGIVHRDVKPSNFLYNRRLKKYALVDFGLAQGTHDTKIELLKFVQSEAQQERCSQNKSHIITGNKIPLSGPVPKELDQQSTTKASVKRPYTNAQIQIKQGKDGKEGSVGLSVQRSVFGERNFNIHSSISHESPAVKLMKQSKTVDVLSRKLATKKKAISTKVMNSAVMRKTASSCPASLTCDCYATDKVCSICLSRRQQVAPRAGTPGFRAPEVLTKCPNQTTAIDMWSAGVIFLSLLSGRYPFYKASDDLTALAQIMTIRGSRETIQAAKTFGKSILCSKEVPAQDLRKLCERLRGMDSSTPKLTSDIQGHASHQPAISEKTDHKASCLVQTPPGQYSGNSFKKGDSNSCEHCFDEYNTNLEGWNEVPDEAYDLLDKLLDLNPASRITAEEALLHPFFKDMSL
T1 sequence (Q9UBU7 whole entry partner): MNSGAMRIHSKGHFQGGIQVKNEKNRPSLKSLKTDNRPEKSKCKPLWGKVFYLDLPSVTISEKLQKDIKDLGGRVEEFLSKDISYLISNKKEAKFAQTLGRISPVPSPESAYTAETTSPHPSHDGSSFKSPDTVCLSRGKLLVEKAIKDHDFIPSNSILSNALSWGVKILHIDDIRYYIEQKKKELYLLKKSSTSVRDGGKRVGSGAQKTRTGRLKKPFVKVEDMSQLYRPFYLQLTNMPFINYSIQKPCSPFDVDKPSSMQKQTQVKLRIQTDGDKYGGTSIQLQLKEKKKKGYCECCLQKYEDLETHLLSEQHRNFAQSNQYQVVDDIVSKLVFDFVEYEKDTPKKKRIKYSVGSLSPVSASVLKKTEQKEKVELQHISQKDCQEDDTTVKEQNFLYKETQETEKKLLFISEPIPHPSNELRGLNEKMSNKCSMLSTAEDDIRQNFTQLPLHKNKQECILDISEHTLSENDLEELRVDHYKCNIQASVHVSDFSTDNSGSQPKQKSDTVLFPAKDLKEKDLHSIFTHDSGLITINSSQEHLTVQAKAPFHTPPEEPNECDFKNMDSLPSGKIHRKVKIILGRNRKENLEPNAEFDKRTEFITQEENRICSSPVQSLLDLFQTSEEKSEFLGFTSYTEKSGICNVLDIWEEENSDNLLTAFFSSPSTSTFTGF

SMILES	IC50 [1] [nM]	IC50 [2] [nM]
CC(C)C1(O)COCc2c1[nH]c(=O)c1sc(-c3cn[nH]c3)cc21 (single isomer, unassigned) [Compound 16]	≤ 1	≤ 5
CCC1(O)COCc2c1[nH]c(=O)c1sc(-c3cn[nH]c3)cc21 (single isomer, unassigned) [Compound 18]	≤ 1	5 to 20
CC(C)(C)[C@@]1(O)COCc2c1[nH]c(=O)c1sc(-c3cn[nH]c3)cc21 (single isomer, unassigned) [Compound 20]	≤ 1	≤ 5
CC(C)(C)[C@@]1(O)COCc2c1[nH]c(=O)c1sc(-c3ccncc3)cc21 (single isomer, unassigned) [Compound 22]	≤ 1	≤ 5
CC(C)C1(O)COCc2c1[nH]c(=O)c1sc(-c3c[nH]nc3F)cc21 (single isomer, unassigned) [Compound 27]	≤ 1	≤ 5
Cn1nccc1-c1cc2c3c([nH]c(=O)c2s1)C(O)(C(F)(F)F)COC3 (single isomer, unassigned) [Compound 30]	≤ 1	> 50
Cc1n[nH]cc1-c1cc2c3c([nH]c(=O)c2s1)C(O)(C(F)(F)F)COC3 (single isomer, unassigned) [Compound 32]	≤ 1	5 to 20
O=c1[nH]c2c(c3cc(-c4cn[nH]c4)sc13)CCCC2(O)C(F)F (single isomer, unassigned) [Compound 37]	≤ 1	5 to 20
CC1(O)CCCc2c1[nH]c(=O)c1sc(-c3cn[nH]c3)cc21 (single isomer, unassigned) [Compound 41]	1 to 10	> 50
CC(C)C1(O)COCc2c1[nH]c(=O)c1sc(-c3ccncc3)cc21 (single isomer, unassigned) [Compound 44]	≤ 1	5 to 20
CC(C)C1(O)COCc2c1[nH]c(=O)c1sc(-c3ccns3)cc21 (single isomer, unassigned) [Compound 46]	≤ 1	5 to 20
COC12CCC(CC1)c1c2[nH]c(=O)c2sc(-c3cn[nH]c3)cc12 [Compound 7, 6-methoxy-2-(1H-pyrazol-4-yl)-6,7,8,9-tetrahydro-6,9-ethanothieno[2,3-c]quinolin-4(5H)-one]	≤ 1	20 to 50
O=c1[nH]c2c(c3cc(-c4cn[nH]c4)sc13)C1CCC2(O)CC1 [Compound 8, 6-hydroxy-2-(1H-pyrazol-4-yl)-6,7,8,9-tetrahydro-6,9-ethanothieno[2,3-c]quinolin-4(5H)-one]	≤ 1	20 to 50
CC1(C)COCc2c1[nH]c(=O)c1sc(-c3cn[nH]c3)cc21 [Compound 58, 4,4-dimethyl-8-(1H-pyrazol-4-yl)-1,3,4,5-tetrahydro-6H-pyrano[4,3-b]thieno[3,2-d]pyridin-6-one]	1 to 10	> 50
CC1(N2CCCC2)COCc2c1[nH]c(=O)c1sc(-c3cn[nH]c3)cc21 (stereo not drawn) [Compound 71, 4-methyl-8-(1H-pyrazol-4-yl)-4-(pyrrolidin-1-yl)-1,3,4,5-tetrahydro-6H-pyrano[4,3-b]thieno[3,2-d]pyridin-6-one]	> 10	
CC(F)(F)CC1(O)COCc2c1[nH]c(=O)c1sc(-c3cn[nH]c3)cc21 (stereo not drawn) [Compound 86, 4-(2,2-difluoropropyl)-4-hydroxy-8-(1H-pyrazol-4-yl)-1,3,4,5-tetrahydro-6H-pyrano[4,3-b]thieno[3,2-d]pyridin-6-one]	≤ 1	
CC(=O)N1Cc2c([nH]c(=O)c3sc(-c4cn[nH]c4)cc23)C(O)(C(C)(C)C)C1 (stereo not drawn) [Compound 94, 2-acetyl-4-tert-butyl-4-hydroxy-8-(1H-pyrazol-4-yl)-3,5-dihydro-1H-thieno[2,3-c][1,6]naphthyridin-6-one]	≤ 1	

Further lines, results first:

IC50 [1] [nM]	IC50 [2] [nM]	SMILES
≤ 1	20 to 50	O=c1[nH]c2c(c3cc(-c4cn[nH]c4)sc13)COCC2(O)C(F)F (single isomer, unassigned) [Compound 42]
≤ 1	≤ 5	CCC1(O)CC(F)(F)Cc2c1[nH]c(=O)c1sc(-c3cn[nH]c3)cc21 (single isomer, unassigned) [Compound 51]
≤ 1	≤ 5	CC(C)(C)C1(O)COCc2c1[nH]c(=O)c1sc(-c3ccncc3F)cc21 (single isomer, unassigned) [Compound 59]
≤ 1	5 to 20	Cc1cnccc1-c1cc2c3c([nH]c(=O)c2s1)C(O)(C(C)(C)C)COC3 (single isomer, unassigned) [Compound 69]
≤ 1	5 to 20	Cn1nccc1-c1cc2c3c([nH]c(=O)c2s1)C(O)(C(C)(C)C)COC3 (single isomer, unassigned) [Compound 89]
> 10	≤ 5	Cc1n[nH]cc1-c1cc2c3c([nH]c(=O)c2s1)C(O)(C(C)(C)C)COC3 (single isomer, unassigned) [Compound 91]
≤ 1		CNC1(C)COCc2c1[nH]c(=O)c1sc(-c3cn[nH]c3)cc21 (stereo not drawn) [Compound 84, 4-methyl-4-(methylamino)-8-(1H-pyrazol-4-yl)-1,3,4,5-tetrahydro-6H-pyrano[4,3-b]thieno[3,2-d]pyridin-6-one]
≤ 1	> 50	CC(C)(C)[C@@]1(O)COCc2c1[nH]c(=O)c1sc(N3CCOCC3)cc21 [Compound 85, (S)-4-(tert-butyl)-4-hydroxy-8-morpholino-1,3,4,5-tetrahydro-6H-pyrano[4,3-b]thieno[3,2-d]pyridin-6-one]
≤ 1	20 to 50	CC(C)(C)C1(O)CNCc2c1[nH]c(=O)c1sc(-c3cn[nH]c3)cc21 (stereo not drawn) [Compound 93, 4-(tert-butyl)-4-hydroxy-8-(1H-pyrazol-4-yl)-1,3,4,5-tetrahydrothieno[2,3-c][1,6]naphthyridin-6(2H)-one]
